Results: patent publication US20250275968A1, “INHIBITORS OF TAU PROTEINS” (DEUTSCHES ZENTRUM FÜR NEURODEGENERATIVE ERKRANKUNGEN E.V., priority 2022, published 2025)
Counter-ions that a name gives are not always drawn.

Legend:
[1] = test system: tau-induced degeneration of Drosophila eyes (GMR-Gal4/WT tau); assay: Drosophila neurodegeneration model (eye degeneration); format: in vivo
Experimental: Stock solutions of individual compounds were prepared by dissolving 10 mg of the compound in 100 μl of 100% DMSO. Osimertinib, Osimertinib mesylate and AZ7550 mesylate were orally fed to the flies by mixing them with food. The final concentration of each compound, which was used for treating the Drosophila, was derived on the basis of recommended concentrations for human use (reference concentration) based on body weight.
We have used three concentrations for each compound. One was equal to the reference concentration, and two were higher than the reference concentration. Final concentrations of different compounds mixed with fly food are: Osimertinib mesylate, […]; Osimertinib, […]; AZ 7550 mesylate, 10 µM and 20 µM. After hatching, first instar larvae were transferred onto the food containing one of the compounds. Food mixed with drug at required concentration was replaced with fresh food every 48 h.
Light microscopy was performed after mounting the fly heads on the glass slide using a double-sided adhesive tape. Full-eye images were captured with the help of an Infinity Analyze camera attached to an Olympus SZX7 microscope with a halogen light source. Total eye surface area and degenerated eye surface area were marked and calculated with Infinity Analyze software (Lumenera corporation). Percentage of degenerated area was calculated and plotted using GraphPad Prism 8.
After the eclosion, treated and control flies (2-3 days old) were fixed in 1% formaldehyde for two hours, followed by serial dehydration steps of 12 hrs each in 25%, 50%, 75% and 100% ethanol were carried out. Flies were stored in 100% ethanol and dried with CPD before mounting on the stab for imaging. Eye Images were captured at 150× and analyzed using Infinity Analyze software.

[2] = test system: HEK293T biosensor cells expressing the human tau repeat domain (RD) harboring the P301L/V337M mutation (TauRD^LM-GFP); assay: HEK biosensor cell tau seeding assay; format: cell-based; details: for compound concentration up to which total amount of cells remained close to 100% (low toxicity): HEK biosensor cells, relative to vehicle (DMSO)
Experimental: Compound stock solutions were prepared as 10 mM compound in DMSO.
HEK293T biosensor cells expressing the human tau repeat domain (RD) harboring the P301L/V337M mutation and fused to a C-terminal GFP tag (named TauRD^LM-GFP) were engineered to probe Tau seeding in cellula (Reference: Liu, S., Hossinger, A., Heumüller, S E. et al. Highly efficient intercellular spreading of protein misfolding mediated by viral ligand-receptor interactions. Nat Commun 12, 5739 (2021). https://doi.org/10.1038/s41467-021-25855-2). HEK cells expressing the P301L human full-length Tau, C-terminally tagged with GFP were incubated with pre-sonicated hTau40^P301L fibrils to induce Tau aggregate formation. Cells were harvested and the resulting cell lysate was used to seed Tau aggregation in further experiments with HEK TauRD^LM-GFP cells.
In a typical seeded assay, HEK cells were incubated with cell lysate, compounds (0-40 μM) and lipofectamine for 22-48 hours. Negative control experiments in the absence of compounds (only with vehicle DMSO) and in the presence of cell lysate were performed in parallel.
Dose response curves were constructed by quantifying the number of cells with aggregates for each compound concentration. The curves were fitted with a sigmoid function using Graphpad PRISM version 8. The inhibitory concentration at 50% activity (IC50) was determined for each compound.

2N4R Tau fibrils = molecular target: T1, 2N4R Tau fibrils (Homo sapiens, UniProt P10636); assay: Saturation transfer difference (STD) NMR with tau fibrils; format: binding; details: 48-fold excess of compound, 100 mM NaCl, 2.5% (v/v) DMSO, pH 6.8, 37° C.
T1 construct: Full-length 2N4R tau was incubated with Osimertinib mesylate
T1 sequence (P10636 1-441 isoform P10636-8): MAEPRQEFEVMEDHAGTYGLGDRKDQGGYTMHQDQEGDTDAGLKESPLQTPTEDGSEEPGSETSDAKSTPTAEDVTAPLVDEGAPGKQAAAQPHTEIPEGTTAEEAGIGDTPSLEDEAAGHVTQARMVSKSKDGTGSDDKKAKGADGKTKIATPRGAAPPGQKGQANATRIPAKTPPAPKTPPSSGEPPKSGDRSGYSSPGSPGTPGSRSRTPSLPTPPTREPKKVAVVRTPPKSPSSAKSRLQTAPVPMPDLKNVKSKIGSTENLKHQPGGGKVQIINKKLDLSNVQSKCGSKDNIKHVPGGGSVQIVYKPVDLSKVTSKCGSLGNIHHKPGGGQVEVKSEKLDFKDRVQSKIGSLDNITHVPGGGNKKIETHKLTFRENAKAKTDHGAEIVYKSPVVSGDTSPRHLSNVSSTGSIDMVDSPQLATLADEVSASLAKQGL
Experimental: 2N4R Tau fibrils were prepared using the aggregation procedure described in the section in vitro assay 1 without Thioflavin T. The mole ratio of “free” compound to fibrils was 48:1 (corresponding to a total compound concentration of 250 μM and a total fibril concentration of 5 μM Tau). The NMR samples were prepared in 50 mM sodium phosphate with 100 mM NaCl and 2.5% (v/v) DMSO at pH 6.8. The spectra were recorded at 37° C. using a Bruker 700 MHz spectrometer equipped with a triple resonance cryoprobe. 1D ^1H-NMR STD spectra were acquired in an interleaved manner, alternating between off-resonance irradiation at 60 ppm and on-resonance irradiation at −2 ppm.

tau(244-372, 13818 Da) = molecular target: T2, tau(244-372, 13818 Da) (Homo sapiens, UniProt P10636); assay: ESI-MS covalent modification of tau; format: binding
T2 construct: comprising residues 244-372 of 2N4R Tau
T2 sequence (P10636 561-689): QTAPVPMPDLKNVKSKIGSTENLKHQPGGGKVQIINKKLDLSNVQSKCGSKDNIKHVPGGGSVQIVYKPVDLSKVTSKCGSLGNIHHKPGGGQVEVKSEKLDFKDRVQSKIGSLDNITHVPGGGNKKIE
Experimental: This analysis was performed using the 4R Tau construct (K18 construct, 13818 Da) comprising residues 244-372 of 2N4R Tau. Compounds (330 μM) were incubated with 4R Tau (65 μM) for 16 h at 37° C. in 10 mM ammonium bicarbonate at pH 7.0. The compound/4R Tau mixtures were injected into an LC system (ACQUITY) coupled to a single quadrupole mass detection system (SQ Detector 2, Waters) with diode-array detectors (DAD). The DAD spectrum covers wavelengths of 210-400 nm. Components of the compound-4R Tau mixture were separated using a BioResolve RP mAb column (Waters) with a gradient of 5-95% buffer B (buffer A is 0.1% TFA in water and buffer B is 0.1% TFA in acetonitrile). Covalent modification of 4R Tau corresponded to mass additions of 500 Da (Osimertinib) and 486 Da (AZ7550 or AZ5104).

STD effect with tau fibrils (fibril binding epitopes) (2N4R Tau fibrils)	SMILES	tau-induced degeneration of Drosophila eyes (percent degeneration, light microscopy) ([1]; GMR-Gal4/WT tau flies treated in food from larvae stage to adult stage)	compound concentration up to which total amount of cells remained close to 100% (low toxicity) [2]	covalent modification of cysteines in tau (ESI-MS) (tau(244-372, 13818 Da))	inhibition of seeded aggregation of tau in HEK biosensor cells ([2]; 0.25 μM or 7.5 μM, 22 hours, lipofectamine)	aggregate formation in cells ([2]; higher concentration (7.5 μM), 22 hours)	signs of eye degeneration in SEM micrographs ([1]; compared to control with GMR-Gal4/WT tau)
	C=CC(=O)Nc1cc(Nc2nccc(-c3cn(C)c4ccccc34)n2)c(OC)cc1N(C)CCN(C)C [Osimertinib mesylate, N-[2-(2-Dimethylaminoethylmethylamino)-4-methoxy-5-[[4-(1-methylindol-3-yl)pyrimidin-2-yl]amino]phenyl]prop-2-enamide Mesylate Salt]	rescue tau-induced degeneration of Drosophila eyes					
Protons showing STD effects	C=CC(=O)Nc1cc(Nc2nccc(-c3c[nH]c4ccccc34)n2)c(OC)cc1N(C)CCN(C)C [Compound 3, N-[2-[[2-(dimethylamino)ethyl]methylamino]-5-[[4-(1H-indol-3-yl)-2-pyrimidinyl]amino]-4-methoxyphenyl]-2-Propenamide]		about 5.0 μM	confirms covalent modification of cysteines			
Protons showing STD effects	C=CC(=O)Nc1cc(Nc2nccc(-c3cn(C)c4ccccc34)n2)c(OC)cc1N(C)CCN(C)C [Osimertinib, N-[2-(2-Dimethylaminoethylmethylamino)-4-methoxy-5-[[4-(1-methylindol-3-yl)pyrimidin-2-yl]amino]phenyl]prop-2-enamide]		about 5.0 μM	confirms covalent modification of cysteines	inhibits the seeded aggregation of tau	decreased aggregate formation	visibly reduced signs of degeneration
